This is an account of results in US20060018833A1, “Method and system for screening compounds for muscular and/or neurological activity in animals” (priority 2004, published 2006).

Experiment [1] concerns teleosts. Nature of the experiment: Electrically induced seizures in teleost fish, blocking by anticonvulsants. Type of experiment: in vivo, teleost (Medaka). The following applies: compound in the water, "(10-80 μM)" printed after phenytoin. An excerpt: Consistent electrical-induced seizures are achieved by optimizing both maximum voltage achieved, overall power delivered during relatively constant current. Electrodes are placed in the wells from above just prior to commencement of the test.
Convulsions are produced by the placing a circular array of 6 stainless steal wire electrodes (around 100 μm in outside diameter) around the perimeter of a single well in a 48 well plate. The electrodes are insulated to the tips on the side of the electrodes that face the inside of the well. In this way the fish is less likely to contact the metal of the electrode that faces the well wall. A seizure is evoked by the application of a constant duration pulse of a constant current sine wave oscillating voltage field. The amount of current applied depends on the electrical impedance of the arrangement. In general around 30 mA of current at around 70 RMS volts is sufficient to produce a reliable seizure in a 2-3 week old Medaka fish. During the pulse the output is randomly scrambled to opposing pairs of the six electrodes via a high voltage MUX circuit. The electronics to produce the above stimulation are apparent to person skilled at the art.
The application of sufficient electrical current to the water containing a fish will evoke a behavioral response. However, at a specific range of current/voltage settings (30-110 V; 20 mA-0.1 mA) an animal will have a seizure, experience a post-ictal period of quiescence and recover. […] Application of a battery of classic anticonvulsants known to block seizure generation in animals will block the expression of seizures in teleost.

Experiment [2] relates to Medaka fish. Nature of the experiment: Chemically (PTZ) induced seizure activity in Medaka fish, anticonvulsant screen (FIG. 5). Type of experiment: in vivo. As for the experimental part:
One embodiment of the screen for anticonvulsant activity in the presence of a chemical stimulus includess placing a single or plurality of adult (1 month) fish into each well of a 12 well plate. This well contains 4 ml of pure tank water with a defined pH (7.0 can be between 6-8), hardness (90 ppm). The test compounds are then applied to the wells in 12 concentrations ranging from 10 μM to 10 mM. The compounds are diluted from standard DMSO stock solutions stored in other multiwell plates. Test compounds are added as either tank water diluted solutions or as DMSO concentrates. […] The compounds are added to wells after the optical clarity (transmittance) of the well water is determined. Following addition of the compounds to the wells a second transmittance measure is made to determine if the compound has dropped out of solution at any of the concentrations. […] Highly insoluble compounds are solublized in cyclodextrins or mixed with wet fish food, dried and applied at a known amount to wells containing a fish that was not fed for a day.
Plates containing soluble compounds are covered with plastic tops from the manufacturer and placed in an incubator set around 27 degrees centigrade and an oxygen rich atmosphere. […] Fish are examined by the operator for deaths and they are scored as such.
Testing is performed in a visible light darkened, sound dampened room upon a highly diffused infrared light box. […] Excess or erratic activity is automatically determined by a computer algorhythim during a 20 minute control period. […]
The image sequence collected following the administration is examined by a computer program which determines a number of factors about the activity of the fish including orientation, location, distance traveled, and cross sectional area of the fish's silhouette. […] Activity levels reaching specific thresholds and the type of activity (circular swimming and erratic darting) are scored along with periods of quiescence. […] The latency to first seizure and the magnitude and frequency of seizures are scored for each well. […]

The test system of experiment [3] is zebrafish. Description: Determining convulsive dose of convulsant added to well water (zebrafish). Type of experiment: in vivo. On the procedure:
To establish the minimum seizure threshold dose (CD50) for convulsant agents 5 ml of tank water is placed a single well of a 12-well plate. […] When the animal has acclimated to the new conditions, a solution containing convulsant (e.g. a 20 mM solution of pentylenetetrazol (PTZ) in tank water) is added to the well at a rate of 0.1 ml per minute. The amount of solution being added is constant. The behavior of the fish is then monitored continuously during the rest period beginning with the addition of the convulsant. At the point which the animal has a convulsion the addition is stopped and the animal removed. […] This dose is considered the convulsive dose (>97%) for teleost.

For experiment [4], the system named is Medaka. Nature of the experiment: Determining convulsive dose of convulsant added to well water (Medaka). The following applies: 20 mM PTZ solution added at 0.1 ml per minute to 5 ml tank water. The experiment is classed as in vivo. As for the experimental part: To establish the minimum seizure threshold dose (CD50) for convulsant agents 5 ml of tank water is placed a single well of a 12-well plate. A single juvenile teleost is placed in the well and allowed to acclimate for a period of time in a darkened room. When the animal has acclimated to the new conditions, a solution containing convulsant (e.g. a 20 mM solution of pentylenetetrazol (PTZ) in tank water) is added to the well at a rate of 0.1 ml per minute. The amount of solution being added is constant. The behavior of the fish is then monitored continuously during the rest period beginning with the addition of the convulsant. At the point which the animal has a convulsion the addition is stopped and the animal removed. […] This dose is considered the convulsive dose (>97%) for teleost.

Each structure is given as a SMILES string.

Take `NC(=O)OCC(COC(N)=O)c1ccccc1` [felbamate]: in experiment [1], the “blocking seizure specific behavioral movements following electrical stimulation” value was “capable of blocking seizure specific behavioral movements”.
Regarding `CCCC(CCC)C(=O)O` [Valproate, valproic acid], the “seizure in well with convulsant and anticonvulsant” value in experiment [2] (FIG. 5 lower right well, 6 mM PTZ and Valproate 5 mM) is reported as “Only the fish in the lower left well has seizure”. Further, the “seizure in well with anticonvulsant only” value in experiment [2] (FIG. 5 upper right well, only valproate 5 mM, no convulsant) was “Only the fish in the lower left well has seizure”.
For `NCC1(CC(=O)O)CCCCC1` [gabapentin], the “blocking seizure specific behavioral movements following electrical stimulation” value in experiment [1] is recorded as “capable of blocking seizure specific behavioral movements”.
In the case of `O=C1NC(=O)C(c2ccccc2)(c2ccccc2)N1` [phenytoin], in experiment [1], the “blocking seizure specific behavioral movements following electrical stimulation” value is recorded as “capable of blocking seizure specific behavioral movements”.
With `C1CCc2nnnn2CC1` [PTZ, pentylenetetrazol], the “seizure evoked, share of fish” value in experiment [3] (adult zebrafish immersed in 5 mM PTZ, within 30 minutes of addition, 10 fish) is recorded as 100%. Also, the “terminal concentration at which the animal has a convulsion (minimum seizure threshold dose, CD50)” value is “around 6 mM” in experiment [3] (zebrafish, 20 mM PTZ solution added at 0.1 ml per minute to 5 ml tank water) and 10 mM in experiment [4]. Also, the “seizure in well with convulsant only” value in experiment [2] (FIG. 5 lower left well, 6 mM PTZ) is listed as “has seizure”.
Turning to `NC(=O)N1c2ccccc2C=Cc2ccccc21` [Carbamazepine], in experiment [1], the “blocking seizure specific behavioral movements following electrical stimulation” value is “capable of blocking seizure specific behavioral movements”.
